Data on two compounds can be found in patent US4071408A, “Neuraminidase” (Research Corporation, priority 1976, dated 1978).

Where “and” joins values, the source holds several entries; their conditions need not be identical. Identical values can stand only once.

In this assay the test system is Arthrobacter sialophilum neuraminidase (NANAase, E.C.3.2.1.18), purified extracellular enzyme. Description: Neuraminidase kinetics and effector tests (release of N-acetylneuraminic acid, citrate-phosphate buffer pH 6.0, 37° C.). It is filed as biochemical. As to the method: Neuraminidase and related assays. The activity of enzyme preparations was determined as follows: A reaction mixture containing 40 μmols of citrate-phosphate buffer, pH 6.0, 1.0 mg of Collocalia mucoid and the enzyme fraction in a final volume of 0.50 ml was incubated at 37° C. Aliquots of 0.20 ml were withdrawn at 5 and 10 minutes, and the N-acetylneuraminic acid determined. In all experiments, zero time points were run for each extract. A unit of enzyme activity is defined as that amount which releases 1 μmol of N-acetylneuraminic acid per minute from the mucoid preparation, under conditions of the standard assay given above. Specific activity is expressed as units/mg of protein. Protein was determined with crystalline bovine serum albumin as standard. N-acetylneuraminate pyruvatelyase assays were carried out.
Enzyme characteristics. Enzyme activity increased linearly with concentration up to 0.28 mg/ml protein. The effect of pH on the activity was examined in citrate-phosphate buffer. A pH activity profile with Collocalia mucoid gave a broad optimum around 5-6. The Km values for Collocalia mucoid and N-acetylneuraminlactose were determined from the kinetic data given as inverse plots. […]

`O=C(O)CN(CCN(CC(=O)O)CC(=O)O)CC(=O)O` [EDTA]: the “effect of EDTA on neuraminidase activity” value (EDTA between 10^-3 M and 10^-2 M, included in the assay mixture or preincubated with the enzyme for 30 min at 37° C.) is given as “no effect”. For the compound N-acetylneuraminlactose, the Km (in general, the concentration of substrate that gives half-maximal velocity) (apparent Km from inverse plots of kinetic data, purified enzyme, read-out: Km for N-acetylneuraminlactose) is ~3.3 mM and 3.3 mM.
